{"source": "ChEMBL document CHEMBL1201862", "about": "“PubChem BioAssay data set” (2004)", "key": {"[1]": {"target": "T1, Replicative DNA helicase DnaB (Mycobacterium tuberculosis, UniProt P9WMR3)", "T1 sequence (P9WMR3 whole entry)": "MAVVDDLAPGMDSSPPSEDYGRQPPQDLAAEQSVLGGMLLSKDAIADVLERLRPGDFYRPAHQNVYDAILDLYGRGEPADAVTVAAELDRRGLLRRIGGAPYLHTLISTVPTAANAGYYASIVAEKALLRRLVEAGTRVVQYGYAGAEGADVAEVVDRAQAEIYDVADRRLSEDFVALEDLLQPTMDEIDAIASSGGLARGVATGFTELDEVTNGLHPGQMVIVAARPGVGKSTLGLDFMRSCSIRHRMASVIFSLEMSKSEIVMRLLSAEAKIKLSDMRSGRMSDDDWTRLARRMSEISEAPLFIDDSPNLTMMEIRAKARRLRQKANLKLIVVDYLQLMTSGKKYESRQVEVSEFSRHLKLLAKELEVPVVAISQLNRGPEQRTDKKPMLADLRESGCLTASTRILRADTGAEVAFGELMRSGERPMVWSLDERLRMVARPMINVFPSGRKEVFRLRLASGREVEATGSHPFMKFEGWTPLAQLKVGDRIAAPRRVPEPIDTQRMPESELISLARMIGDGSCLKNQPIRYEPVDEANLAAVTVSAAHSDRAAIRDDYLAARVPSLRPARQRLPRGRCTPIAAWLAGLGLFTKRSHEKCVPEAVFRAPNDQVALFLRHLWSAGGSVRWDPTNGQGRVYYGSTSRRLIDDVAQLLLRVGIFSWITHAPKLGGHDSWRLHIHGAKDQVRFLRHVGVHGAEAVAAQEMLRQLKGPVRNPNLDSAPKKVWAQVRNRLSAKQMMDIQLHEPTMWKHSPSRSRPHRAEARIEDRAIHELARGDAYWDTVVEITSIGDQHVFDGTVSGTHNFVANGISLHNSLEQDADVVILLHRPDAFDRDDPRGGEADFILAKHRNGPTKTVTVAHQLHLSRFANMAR", "test": "DnaB intein splicing inhibitors, dose response, biochemical, cell-free fluorescence (AID 449749)", "format": "functional"}, "Protein RecA": {"target": "T2, Protein RecA (Mycobacterium tuberculosis, UniProt P9WHJ3)", "T2 sequence (P9WHJ3 whole entry)": "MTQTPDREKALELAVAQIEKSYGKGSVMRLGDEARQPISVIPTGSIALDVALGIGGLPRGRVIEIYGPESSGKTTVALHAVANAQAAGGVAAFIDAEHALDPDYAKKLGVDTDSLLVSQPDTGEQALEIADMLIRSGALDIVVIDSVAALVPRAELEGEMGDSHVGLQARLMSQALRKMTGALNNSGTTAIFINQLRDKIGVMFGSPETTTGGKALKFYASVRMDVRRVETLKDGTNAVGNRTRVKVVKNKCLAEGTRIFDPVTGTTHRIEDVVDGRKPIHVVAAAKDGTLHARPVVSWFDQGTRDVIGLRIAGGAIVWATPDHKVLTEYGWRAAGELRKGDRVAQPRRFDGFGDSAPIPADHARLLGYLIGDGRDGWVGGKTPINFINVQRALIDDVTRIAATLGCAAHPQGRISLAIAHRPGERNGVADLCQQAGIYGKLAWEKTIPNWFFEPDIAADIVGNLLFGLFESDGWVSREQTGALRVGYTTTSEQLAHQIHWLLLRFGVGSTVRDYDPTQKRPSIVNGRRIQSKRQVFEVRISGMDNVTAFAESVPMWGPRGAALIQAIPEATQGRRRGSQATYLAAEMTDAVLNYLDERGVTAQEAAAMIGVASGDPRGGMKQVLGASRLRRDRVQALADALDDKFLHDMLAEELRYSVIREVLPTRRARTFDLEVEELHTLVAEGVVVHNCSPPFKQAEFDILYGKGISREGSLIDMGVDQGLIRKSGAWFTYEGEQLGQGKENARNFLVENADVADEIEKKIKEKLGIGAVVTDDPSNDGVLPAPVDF", "test": "Fluorescence Cell-Free Homogeneous Dose Retest to Identify Inhibitors of RecA-Intein Splicing Activity. [Related pubchem assays (depositor defined):AID2097, AID2223, AID489010, AID492950]", "format": "functional"}, "INS1": {"test_system": "INS1", "test": "beta cell apoptosis inhibitors, cytokine rescue, dose response, luminescence, retest (AID 449756);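 further: cell death triggered by IL-1 beta plus TNF-alpha plus IFN-gamma mixture; protective hits raise ATP signal compared with cytokine alone wells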", "format": "functional, cell-based", "conditions": "Rattus norvegicus"}, "[2]": {"test": "cytotoxicity toward NIH3T3 fibroblasts, dose response, counter-screen, cell-based, ATP luminescence, mouse fibroblasts (AID 2010);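 further: cells exposed to compound for about 90 hours before reading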", "format": "functional"}, "[3]": {"test": "inhibitors of intracellular T. cruzi replication, confirmation, NIH3T3 host cells, beta-gal luminescence (AID 2044);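 further: luminescent beta-galactosidase reporter signal from transgenic T. cruzi replicating inside host cells; inhibitors lower the luminescence signal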", "format": "functional, cell-based"}, "[4]": {"target": "T3, Corticotropin-releasing factor receptor 2/Corticotropin-releasing factor-binding protein (Homo sapiens, UniProt P24387+Q13324)", "T3 sequence (Q13324 whole entry)": "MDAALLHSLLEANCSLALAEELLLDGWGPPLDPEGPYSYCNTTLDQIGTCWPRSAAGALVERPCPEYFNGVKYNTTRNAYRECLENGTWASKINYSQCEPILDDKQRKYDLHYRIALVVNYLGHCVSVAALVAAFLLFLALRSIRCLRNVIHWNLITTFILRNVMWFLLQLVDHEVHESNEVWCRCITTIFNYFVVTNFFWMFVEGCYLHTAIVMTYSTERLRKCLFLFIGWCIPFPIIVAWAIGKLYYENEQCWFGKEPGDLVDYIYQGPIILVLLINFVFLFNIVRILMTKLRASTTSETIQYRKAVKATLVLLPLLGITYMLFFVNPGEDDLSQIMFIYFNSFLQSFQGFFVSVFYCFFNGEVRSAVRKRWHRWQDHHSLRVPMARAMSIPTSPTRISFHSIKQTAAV", "T3 sequence (P24387 whole entry)": "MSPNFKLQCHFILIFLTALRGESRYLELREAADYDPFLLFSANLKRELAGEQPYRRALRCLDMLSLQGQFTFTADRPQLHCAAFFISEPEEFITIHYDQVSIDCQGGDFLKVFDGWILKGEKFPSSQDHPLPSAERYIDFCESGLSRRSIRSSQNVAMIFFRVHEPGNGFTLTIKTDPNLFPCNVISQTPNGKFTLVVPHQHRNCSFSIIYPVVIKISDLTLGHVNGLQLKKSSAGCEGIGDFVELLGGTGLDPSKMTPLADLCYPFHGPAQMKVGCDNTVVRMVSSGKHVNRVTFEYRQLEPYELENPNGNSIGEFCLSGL", "test": "activators of CRF receptor 2 with binding protein – uHTS hits, confirmation (AID 602473)", "format": "functional", "conditions": "read-out: EC50_Mean"}, "[5]": {"target": "T3, Corticotropin-releasing factor receptor 2/Corticotropin-releasing factor-binding protein", "test": "Dose Response confirmation of uHTS hits for small molecule antagonists of the CRF-binding protein and CRF-R2 receptor complex.", "format": "functional", "conditions": "read-out: IC50_Mean"}, "[6]": {"test": "Luminescence Cell-Based Dose Response HTS to Identify Activators of Luciferase Translation or Activity in H4 […] Cells. [Related pubchem assays: 1829 (Project Summary), 1814 (Primary HTS)]", "format": "functional"}, "H4": {"test_system": "H4", "test": "Luminescence Cell-Based Dose Response HTS to Identify Activators of 5'UTR Stem-Loop Driven Prion Protein mRNA Translation in H4 Neuroglioblastoma Cells. [Related pubchem assays: 1829 (Project Summary), 1814 (Primary HTS)]", "format": "functional", "conditions": "Homo sapiens"}, "Cytochrome P450 2D6": {"target": "Cytochrome P450 2D6 (Homo sapiens, UniProt P10635)", "sequence (P10635 whole entry)": "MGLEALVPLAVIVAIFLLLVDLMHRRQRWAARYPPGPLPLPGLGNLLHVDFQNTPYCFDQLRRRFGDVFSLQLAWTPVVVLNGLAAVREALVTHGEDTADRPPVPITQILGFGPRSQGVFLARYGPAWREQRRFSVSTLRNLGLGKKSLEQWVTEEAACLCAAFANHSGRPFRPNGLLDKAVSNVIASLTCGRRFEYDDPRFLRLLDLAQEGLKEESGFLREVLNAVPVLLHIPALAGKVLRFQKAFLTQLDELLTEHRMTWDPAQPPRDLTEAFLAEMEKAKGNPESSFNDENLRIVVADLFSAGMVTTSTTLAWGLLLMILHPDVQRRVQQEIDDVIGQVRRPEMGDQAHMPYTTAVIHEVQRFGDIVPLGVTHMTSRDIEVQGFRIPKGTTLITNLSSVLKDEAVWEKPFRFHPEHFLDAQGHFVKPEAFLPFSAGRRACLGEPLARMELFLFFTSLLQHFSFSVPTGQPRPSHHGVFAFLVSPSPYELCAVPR"}, "[7]": {"test": "Luminescence Cell-Based Dose Retest to Confirm Inhibitors of Cancer Stem Cells. [Related pubchem assays (depositor defined):AID2717, AID2721]", "format": "functional", "conditions": "Homo sapiens"}, "[8]": {"test": "growth suppression of PTEN-null colon cells, dose response, cell-based, HCT116 PTEN knockout (AID 1047);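 further: HCT116 colon tumor cells with PTEN knocked out; cells exposed to compound for 60 hours before readout; potency for loss of cell viability measured by luminescence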", "format": "functional"}, "[9]": {"test": "inhibitors of firefly luciferase expression or activity, dose response, H4 neuroglioma cells, luminescence (AID 1990)", "format": "functional, cell-based"}, "[10]": {"test": "Luminescence Cell-Based Dose Response HTS to Identify Inhibitors of 5'UTR Stem-Loop Driven Prion Protein mRNA Translation in H4 Neuroglioblastoma Cells. [Related pubchem assays: 1827 (Project Summary), 1813 (Primary HTS)]", "format": "functional"}, "[11]": {"test": "inhibitors of SNCA 5'UTR-driven reporter translation, confirmation, H4 neuroglioma cells, luminescence (AID 1988)", "format": "functional, cell-based"}}, "note": "Activity calls are given as the source filed them. For most assays here, no stated cut-off is given here; in the data, actives have a measured EC50 and inactives only a lower limit.", "data": [{"compound": "O=C1/C(=C/c2cccc([N+](=O)[O-])c2)CCc2ccccc21", "values": [{"measurement": "AC50", "setting": "[1]", "value": "8.57 µM (active)"}, {"measurement": "EC50", "setting": "Protein RecA", "value": "13.3 µM (active)"}]}, {"compound": "Cc1ccc(-c2nn(-c3ccccc3)cc2/C=N/NC(=O)c2ccc3c(c2)OCO3)cc1", "values": [{"measurement": "AC50", "setting": "INS1", "value": "5.54 µM (active)"}]}, {"compound": "CCCN(CCC)C(=O)c1cc([N+](=O)[O-])cc2c1-c1ccc([N+](=O)[O-])cc1C2=C(C#N)C#N", "values": [{"measurement": "EC50", "setting": "[2]", "value": "10.7 µM (active)"}, {"measurement": "EC50", "setting": "[3]", "value": "1.62 µM (active)"}, {"measurement": "AC50", "setting": "INS1", "value": "6.7 µM (active)"}]}, {"compound": "COc1cccc(C2CCCN2Cc2nc(-c3cnccn3)no2)c1", "note": "(stereo not drawn)", "values": [{"measurement": "EC50", "setting": "[4]", "value": "> 53 µM (inactive)"}, {"measurement": "IC50", "setting": "[5]", "value": "> 47.1 µM (inactive)"}]}, {"compound": "Cc1ccc(CCNC(=O)C2CCC(=O)N2C2CCCC2)cc1", "note": "(stereo not drawn)", "values": [{"measurement": "EC50", "setting": "[4]", "value": "> 53 µM (inactive)"}, {"measurement": "IC50", "setting": "[5]", "value": "> 47.1 µM (inactive)"}]}, {"compound": "CCOC(=O)c1c(CCl)nc2ccccc2c1-c1ccccc1", "values": [{"measurement": "AC50", "setting": "[1]", "value": "9.56 µM (active)"}, {"measurement": "EC50", "setting": "Protein RecA", "value": "12.6 µM (active)"}]}, {"compound": "Cc1csc(NC(=O)c2nc3nccc(C)n3n2)n1", "values": [{"measurement": "EC50", "setting": "[6]", "value": "36.1 µM (active)"}, {"measurement": "EC50", "setting": "H4", "value": "37.4 µM (active)"}]}, {"compound": "CCCc1c(-c2ccc(O)cc2)nn(-c2ccc(O)cc2)c1-c1ccc(O)cc1", "note": "[PROPYLPYRAZOLETRIOL]", "values": [{"measurement": "AC50", "setting": "[1]", "value": "2.92 µM (active)"}, {"measurement": "AC50", "setting": "Cytochrome P450 2D6", "value": "12.6 µM (inconclusive)"}, {"measurement": "EC50", "setting": "Protein RecA", "value": "4.88 µM (active)"}, {"measurement": "AC50", "setting": "[7]", "value": "3.78 µM (active)"}]}, {"compound": "NNC(=S)NC1CCS(=O)(=O)C1", "note": "(stereo not drawn)", "values": [{"measurement": "EC50", "setting": "[4]", "value": "> 53 µM (inactive)"}, {"measurement": "IC50", "setting": "[5]", "value": "> 47.1 µM (inactive)"}]}, {"compound": "Cc1n[nH]c2c1C(C1CC=CCC1)C(C#N)=C(N)O2", "note": "(stereo not drawn)", "values": [{"measurement": "EC50", "setting": "[8]", "value": "34.7 µM (active)"}]}, {"compound": "COC(=O)c1ccccc1NC(=O)C(C)n1nc(C)c2c(C)n(-c3ccccc3)nc2c1=O", "note": "(stereo not drawn)", "values": [{"measurement": "AC50", "setting": "[1]", "value": "208 µM (active)"}, {"measurement": "EC50", "setting": "[9]", "value": "25.5 µM (active)"}, {"measurement": "EC50", "setting": "[10]", "value": "20.1 µM (active)"}, {"measurement": "EC50", "setting": "[11]", "value": "22.9 µM (active)"}, {"measurement": "EC50", "setting": "Protein RecA", "value": "> 380 µM (inactive)"}]}, {"compound": "COc1cc(C(C(=O)NC2CCCCC2)N(CCN2CCOCC2)C(=O)C2COc3ccccc3O2)cc(OC)c1OC", "note": "(stereo not drawn)", "values": [{"measurement": "AC50", "setting": "[1]", "value": "> 380 µM (inactive)"}, {"measurement": "EC50", "setting": "Protein RecA", "value": "> 380 µM (inactive)"}]}]}
